Measurements taken from patent US20220387304A1, “MULTI-LAYERED NANOPARTICLE COATED SUBSTRATES FOR DRUG DELIVERY” (The UAB Research Foundation, priority 2019, published 2022).
Where two headings read alike, the source gives them in different places.

Experiments:
Interleukin-8 (IL-8) = assay: LPS-induced IL-8 secretion from HSNEC (ELISA); format: cell-based, human; details: n=3
Text: (§1) Primary HSNECs were collected with prior approval of the Institutional Review Board at University of Alabama at Birmingham (UAB) (IRB-120305017). Written informed consent from each participant was collected and subjects were screened and negative for a mutation in the cystic fibrosis transmembrane conductance regulator gene. Primary HSNECs were derived from turbinate mucosa from 3 healthy donors undergoing surgery for non-inflammatory conditions and cultured on collagen-coated Costar 6.5-mm-diameter permeable filter supports (Corning, Lowell, Mass.) submerged in established culture media. Differentiation and ciliogenesis occurred in all cultures within 10 to 14 days.^17-26 Matured HSNECs with resistance over 300 Ω/cm^2 and 80% field ciliogenesis by inverted microscopy were subjected to experiments.
After the incubation period, the basal media (600 μL) were collected and measured for IL-8 concentration in each sample according to the manufacture's protocol (R&D systems, Minneapolis, Minn.). The secreted IL-8 concentration in each sample was evaluated by measuring the absorbance at 450 nm using a microplate reader (Synergy HK, BIO-TEK Instruments, Winooski, Vt.). All samples were performed in triplicate.
To evaluate the anti-inflammatory effects of azithromycin on HSNEC, cells were stimulated with 25 μg/ml of P. aeruginosa lipopolysaccharide (LPS) for 2 hours, and treated with incremental azithromycin concentrations (6, 60, and 180 μg/ml) (FIG. 13). After a 24-hour incubation period, the basolateral media was harvested and secreted IL-8 was measured.

HSNECs [1] = assay: Ciliary beat frequency analysis; format: cell-based, human
Method: After applying 100 μL of sterilized PBS as control or PBS containing drug to the apical surface of the cells, the motion images were acquired for 30 minutes. Under each condition, image acquisition was performed using a Basler area scan high-speed monochromatic digital video camera (Basler AG, Ahrensburg, Germany) at a sampling rate of 100 frames per second. The Sisson-Ammons Video Analysis (SAVA) system was used to acquire CBF. Baseline CBF recording was conducted in the previously described manner, and each analysis of CBF was normalized to fold-change over baseline CBF Hz (treatment/baseline).^28

HSNECs [2] = details: human, 30 μg/ml
Text: as §1

HSNECs [3] = assay: HSNEC viability LDH assay; format: cell-based, human
Text: Concentration gradients generated from internal standards (with positive controls) provided by the manufacturer render a theoretical kit detection range in biological samples containing IL-8. […] Louis, Mo.). […] The resulting formazan absorbs maximally at 492 nm and can be measured quantitatively at 490 nm. Total LDH in each sample was expressed as ng/ml.

HSNECs [4] = assay: Paracellular permeability of FITC dextran across HSNECs; format: cell-based, human; details: for average paracellular permeability of dextran particles: human
Method: The diffusion-barrier of […] is determined by a tight epithelial barrier and tight junction formation and is impacted by a number of chemicals. […] The permeated concentrations of FITC dextran were quantified by a fluorescence microplate reader.

normalized TEER (HSNECs [2]; 3 h)	normalized TEER (HSNECs [2]; 6 h)	average paracellular permeability of dextran particles (HSNECs [4]; 3 h)	average paracellular permeability of dextran particles (HSNECs [4]; 6 h)	Structure (SMILES)	secreted IL-8 (Interleukin-8 (IL-8); azithromycin 6 μg/ml, 25 μg/ml LPS 2 hours, 24-hour incubation)	secreted IL-8 (Interleukin-8 (IL-8); azithromycin 60 μg/ml, 25 μg/ml LPS 2 hours, 24-hour incubation)	secreted IL-8 (Interleukin-8 (IL-8); azithromycin 180 μg/ml, 25 μg/ml LPS 2 hours, 24-hour incubation)	ciliary beat frequency (HSNECs [1])	cellular viability of HSNECs, LDH (HSNECs [3])	paracellular permeability of HSNECs over time (HSNECs [4])	secreted IL-8 (Interleukin-8 (IL-8); ciprofloxacin 2.4 μg/ml alone with LPS exposure)
1.14+/−0.06 Ω/cm^2	1.02+/−0.37 Ω/cm^2	0.10+/−0.15%	3.44+/−0.24%	CC[C@H]1OC(=O)[C@H](C)[C@@H](O[C@H]2C[C@@](C)(OC)[C@@H](O)[C@H](C)O2)[C@H](C)[C@@H](O[C@@H]2O[C@H](C)C[C@H](N(C)C)[C@H]2O)[C@](C)(O)C[C@@H](C)CN(C)[C@H](C)[C@@H](O)[C@]1(C)O [azithromycin]	4.579 ± 0.399 ng/mL	4.312 ± 0.057 ng/mL	4.269 ± 0.258 ng/mL	No significant difference in ciliary beat frequency	No detrimental effect on the cellular viability	No alterations in average paracellular permeability	–
–	–	–	–	O=C(O)c1cn(C2CC2)c2cc(N3CCNCC3)c(F)cc2c1=O [ciprofloxacin]	–	–	–	No significant difference in ciliary beat frequency	No detrimental effect on the cellular viability	–	6.40 ± 0.26 ng/mL
